# System: A549 cells
# Test: mRNA array gene expression analysis after transfection
# Type: cell-based, human
substance,measurement,setting,value
"hsa-miR-126 (UCGUACCGUGAGUAAUAAUGC; synthetic pre-miR form, further chemistry not given here) [Synthetic hsa-miR-126 (Pre-miR™-hsa-miR-126, Ambion cat. no. AM17100)]",Δ log2 PRNP mRNA,,−0.8862 log2
same,Δ log2 ABAT mRNA,"A549, 30 nM",0.7144 log2
same,Δ log2 ABCC1 mRNA,"A549, 30 nM",−1.371 log2
same,Δ log2 ABHD3 mRNA,"A549, 30 nM",−1.85 log2
same,Δ log2 ACSM3 mRNA,"A549, 30 nM",1.028 log2
same,Δ log2 ACTR2 mRNA,"A549, 30 nM",0.8699 log2
same,Δ log2 ADAM9 mRNA,"A549, 30 nM",−1.175 log2
same,Δ log2 ADK mRNA,"A549, 30 nM",−1.161 log2
same,Δ log2 AES mRNA,"A549, 30 nM",−1.21 log2
same,Δ log2 AHNAK mRNA,"A549, 30 nM",−1.362 log2
same,Δ log2 ALDH6A1 mRNA,"A549, 30 nM",0.9207 log2
same,Δ log2 ANG /// RNASE4 mRNA,"A549, 30 nM",0.8377 log2
same,Δ log2 ANKRD46 mRNA,"A549, 30 nM",1.489 log2
same,Δ log2 ANPEP mRNA,"A549, 30 nM",1.016 log2
same,Δ log2 ANTXR1 mRNA,"A549, 30 nM",−1.152 log2
same,Δ log2 APOH mRNA,"A549, 30 nM",1.465 log2
same,Δ log2 APP mRNA,"A549, 30 nM",0.7951 log2
same,Δ log2 AQP3 mRNA,"A549, 30 nM",1.683 log2
same,Δ log2 ARFRP1 mRNA,"A549, 30 nM",−0.7079 log2
same,Δ log2 ARG2 mRNA,"A549, 30 nM",0.8026 log2
same,Δ log2 ARHGAP11A mRNA,"A549, 30 nM",−0.8591 log2
same,Δ log2 ARHGDIA mRNA,"A549, 30 nM",−1.479 log2
same,Δ log2 ARID5B mRNA,"A549, 30 nM",0.8176 log2
same,Δ log2 ARL2BP mRNA,"A549, 30 nM",0.9301 log2
same,Δ log2 ARTS-1 mRNA,"A549, 30 nM",0.886 log2
same,Δ log2 ASNS mRNA,"A549, 30 nM",−0.7092 log2
same,Δ log2 ATP6V0E mRNA,"A549, 30 nM",1.493 log2
same,Δ log2 ATP6V1D mRNA,"A549, 30 nM",−1.206 log2
same,Δ log2 B4GALT4 mRNA,"A549, 30 nM",−2.01 log2
same,Δ log2 B4GALT6 mRNA,"A549, 30 nM",−0.8145 log2
same,Δ log2 BCL2A1 mRNA,"A549, 30 nM",−0.8657 log2
same,Δ log2 BCL6 mRNA,"A549, 30 nM",1.023 log2
same,Δ log2 BF mRNA,"A549, 30 nM",1.375 log2
same,Δ log2 BHLHB2 mRNA,"A549, 30 nM",−0.7321 log2
same,Δ log2 BTG2 mRNA,"A549, 30 nM",0.7161 log2
same,Δ log2 C1R mRNA,"A549, 30 nM",1.372 log2
same,Δ log2 C1orf121 mRNA,"A549, 30 nM",−1.019 log2
same,Δ log2 C2orf26 mRNA,"A549, 30 nM",−1.688 log2
same,Δ log2 C2orf33 mRNA,"A549, 30 nM",−1.066 log2
same,Δ log2 C3 mRNA,"A549, 30 nM",1.751 log2
same,Δ log2 C5orf15 mRNA,"A549, 30 nM",−1.099 log2
same,Δ log2 C6orf75 mRNA,"A549, 30 nM",−1.159 log2
same,Δ log2 C8orf1 mRNA,"A549, 30 nM",−1.201 log2
same,Δ log2 C8orf32 mRNA,"A549, 30 nM",−1.162 log2
same,Δ log2 C19orf28 mRNA,"A549, 30 nM",−1.583 log2
same,Δ log2 CA11 mRNA,"A549, 30 nM",0.8832 log2
same,Δ log2 CCND1 mRNA,"A549, 30 nM",−0.7871 log2
same,Δ log2 CCNG1 mRNA,"A549, 30 nM",0.7209 log2
same,Δ log2 CD9 mRNA,"A549, 30 nM",−1.226 log2
same,Δ log2 CDC37L1 mRNA,"A549, 30 nM",−1.198 log2
same,Δ log2 CDH4 mRNA,"A549, 30 nM",−1.072 log2
same,Δ log2 CDH17 mRNA,"A549, 30 nM",1.248 log2
same,Δ log2 CEACAM1 mRNA,"A549, 30 nM",1.002 log2
same,Δ log2 CEBPD mRNA,"A549, 30 nM",0.9196 log2
same,Δ log2 CFH /// CFHL1 mRNA,"A549, 30 nM",0.727 log2
same,Δ log2 CGI-38 mRNA,"A549, 30 nM",1.152 log2
same,Δ log2 CGI-48 mRNA,"A549, 30 nM",1.409 log2
same,Δ log2 CHGB mRNA,"A549, 30 nM",2.066 log2
same,Δ log2 CHST11 mRNA,"A549, 30 nM",−0.8983 log2
same,Δ log2 CMKOR1 mRNA,"A549, 30 nM",−0.9537 log2
same,Δ log2 COL4A1 mRNA,"A549, 30 nM",−1.251 log2
same,Δ log2 COL4A2 mRNA,"A549, 30 nM",−1.104 log2
same,Δ log2 COPS7A mRNA,"A549, 30 nM",−0.7137 log2
same,Δ log2 CP mRNA,"A549, 30 nM",2.115 log2
same,Δ log2 CPE mRNA,"A549, 30 nM",0.8454 log2
same,Δ log2 CPS1 mRNA,"A549, 30 nM",0.7371 log2
same,Δ log2 CTDSP2 mRNA,"A549, 30 nM",1.119 log2
same,Δ log2 CTDSPL mRNA,"A549, 30 nM",0.7348 log2
same,Δ log2 CTGF mRNA,"A549, 30 nM",0.7924 log2
same,Δ log2 CTPS mRNA,"A549, 30 nM",−1.07 log2
same,Δ log2 CTSS mRNA,"A549, 30 nM",0.9282 log2
same,Δ log2 CXCL5 mRNA,"A549, 30 nM",0.8706 log2
same,Δ log2 CYP3A5 mRNA,"A549, 30 nM",0.8111 log2
same,Δ log2 DAAM1 mRNA,"A549, 30 nM",0.7598 log2
same,Δ log2 DCBLD2 mRNA,"A549, 30 nM",−1.329 log2
same,Δ log2 DCUN1D1 mRNA,"A549, 30 nM",−1.329 log2
same,Δ log2 DDC mRNA,"A549, 30 nM",1.008 log2
same,Δ log2 DDX3Y mRNA,"A549, 30 nM",0.738 log2
same,Δ log2 DHRS2 mRNA,"A549, 30 nM",1.489 log2
same,Δ log2 DIO2 mRNA,"A549, 30 nM",−1.213 log2
same,Δ log2 DIPA mRNA,"A549, 30 nM",−0.8054 log2
same,Δ log2 DKFZP586A0522 mRNA,"A549, 30 nM",1.054 log2
same,Δ log2 DLG5 mRNA,"A549, 30 nM",−1.467 log2
same,Δ log2 DNAJB9 mRNA,"A549, 30 nM",0.9599 log2
same,Δ log2 DPYSL3 mRNA,"A549, 30 nM",−0.947 log2
same,Δ log2 DSU mRNA,"A549, 30 nM",0.9423 log2
same,Δ log2 DUSP6 mRNA,"A549, 30 nM",0.7153 log2
same,Δ log2 EEF1D mRNA,"A549, 30 nM",0.9871 log2
same,Δ log2 EFHD2 mRNA,"A549, 30 nM",−1.109 log2
same,Δ log2 EGFR mRNA,"A549, 30 nM",−1.333 log2
same,Δ log2 EHF mRNA,"A549, 30 nM",2.017 log2
same,Δ log2 EML1 mRNA,"A549, 30 nM",−1.062 log2
same,Δ log2 ENPP4 mRNA,"A549, 30 nM",0.8064 log2
same,Δ log2 EPHB2 mRNA,"A549, 30 nM",−0.8763 log2
same,Δ log2 ERBB3 mRNA,"A549, 30 nM",1.041 log2
same,Δ log2 EREG mRNA,"A549, 30 nM",−0.7398 log2
same,Δ log2 F2RL1 mRNA,"A549, 30 nM",−0.7846 log2
same,Δ log2 F5 mRNA,"A549, 30 nM",1.115 log2
same,Δ log2 F8A1 mRNA,"A549, 30 nM",−0.8485 log2
same,Δ log2 FAM46A mRNA,"A549, 30 nM",0.8499 log2
same,Δ log2 FAS mRNA,"A549, 30 nM",0.9486 log2
same,Δ log2 FBXO11 mRNA,"A549, 30 nM",0.8295 log2
same,Δ log2 FCMD mRNA,"A549, 30 nM",−0.8718 log2
same,Δ log2 FGB mRNA,"A549, 30 nM",1.118 log2
same,Δ log2 FGFR1 mRNA,"A549, 30 nM",−0.7031 log2
same,Δ log2 FGFR4 mRNA,"A549, 30 nM",0.9059 log2
same,Δ log2 FGL1 mRNA,"A549, 30 nM",2.076 log2
same,Δ log2 FLJ11184 mRNA,"A549, 30 nM",−0.9264 log2
same,Δ log2 FLJ13910 mRNA,"A549, 30 nM",1.05 log2
same,Δ log2 FLJ20364 mRNA,"A549, 30 nM",−1.021 log2
same,Δ log2 FLJ21159 mRNA,"A549, 30 nM",−1.12 log2
same,Δ log2 FLJ31568 mRNA,"A549, 30 nM",0.732 log2
same,Δ log2 FLRT3 mRNA,"A549, 30 nM",1.34 log2
same,Δ log2 FMO5 mRNA,"A549, 30 nM",1.277 log2
same,Δ log2 FOSL1 mRNA,"A549, 30 nM",−0.9348 log2
same,Δ log2 GABRA5 mRNA,"A549, 30 nM",−1.612 log2
same,Δ log2 GALNT4 mRNA,"A549, 30 nM",1.916 log2
same,Δ log2 GALNT12 mRNA,"A549, 30 nM",−0.8981 log2
same,Δ log2 GART mRNA,"A549, 30 nM",−1.022 log2
same,Δ log2 GATM mRNA,"A549, 30 nM",1.127 log2
same,Δ log2 GCH1 mRNA,"A549, 30 nM",0.9389 log2
same,Δ log2 GLI2 mRNA,"A549, 30 nM",−0.8678 log2
same,Δ log2 GLT25D1 mRNA,"A549, 30 nM",−1.17 log2
same,Δ log2 GLUL mRNA,"A549, 30 nM",0.734 log2
same,Δ log2 GNA13 mRNA,"A549, 30 nM",0.7394 log2
same,Δ log2 GPR64 mRNA,"A549, 30 nM",−1.209 log2
same,Δ log2 GREM1 mRNA,"A549, 30 nM",−1.049 log2
same,Δ log2 GTF2B mRNA,"A549, 30 nM",−0.9795 log2
same,Δ log2 GTSE1 mRNA,"A549, 30 nM",−0.7712 log2
same,Δ log2 H2AFY mRNA,"A549, 30 nM",−0.841 log2
same,Δ log2 H3F3B mRNA,"A549, 30 nM",−1.391 log2
same,Δ log2 HERC4 mRNA,"A549, 30 nM",−1.409 log2
same,Δ log2 HES1 mRNA,"A549, 30 nM",0.8154 log2
same,Δ log2 HIPK3 mRNA,"A549, 30 nM",0.8255 log2
same,Δ log2 HKDC1 mRNA,"A549, 30 nM",−0.8911 log2
same,Δ log2 HLA-DMA mRNA,"A549, 30 nM",1.267 log2
same,Δ log2 HLA-DMB mRNA,"A549, 30 nM",1.253 log2
same,Δ log2 HMGA1 mRNA,"A549, 30 nM",−0.8703 log2
same,Δ log2 IER3IP1 mRNA,"A549, 30 nM",1.015 log2
same,Δ log2 IFI16 mRNA,"A549, 30 nM",0.7014 log2
same,Δ log2 IFIT1 mRNA,"A549, 30 nM",0.766 log2
same,Δ log2 IL6R mRNA,"A549, 30 nM",1.8 log2
same,Δ log2 IL6ST mRNA,"A549, 30 nM",0.7356 log2
same,Δ log2 IL11 mRNA,"A549, 30 nM",−1.98 log2
same,Δ log2 ILK mRNA,"A549, 30 nM",−1.193 log2
same,Δ log2 INHBC mRNA,"A549, 30 nM",0.988 log2
same,Δ log2 ITGAV mRNA,"A549, 30 nM",−1.397 log2
same,Δ log2 ITGB4 mRNA,"A549, 30 nM",−1.084 log2
same,Δ log2 IVNS1ABP mRNA,"A549, 30 nM",−1.126 log2
same,Δ log2 JUN mRNA,"A549, 30 nM",−1.257 log2
same,Δ log2 KCNJ2 mRNA,"A549, 30 nM",0.9432 log2
same,Δ log2 KCNJ16 mRNA,"A549, 30 nM",0.8637 log2
same,Δ log2 KCNK5 mRNA,"A549, 30 nM",0.9088 log2
same,Δ log2 KCTD9 mRNA,"A549, 30 nM",−1.102 log2
same,Δ log2 KIAA0152 mRNA,"A549, 30 nM",−1.121 log2
same,Δ log2 KIAA0317 mRNA,"A549, 30 nM",−0.9984 log2
same,Δ log2 KIAA0882 mRNA,"A549, 30 nM",0.7061 log2
same,Δ log2 KLC2 mRNA,"A549, 30 nM",−1.308 log2
same,Δ log2 KLF4 mRNA,"A549, 30 nM",−1.01 log2
same,Δ log2 LARP6 mRNA,"A549, 30 nM",−1.273 log2
